Experimental data taken from patent publication EP0267996A1, “New nucleotide derivatives” (TAMIR BIOTECHNOLOGY LTD., priority 1986, dated 1988).

What was measured:
Format in all cases: binding
Details in all cases: for Cross-reaction (%): RIA, 100x/y, masses of testosterone and heterologous compound giving 50% inhibition of binding of the tritiated ligand
[1] = test system: Polyclonal Rat IgG to testosterone (from the rats used for the fusion experiments); experiment: Dextran-coated charcoal radioimmunoassay (RIA): affinity and specificity of antibody
Procedure: Immunization: Wistar-derived female rats (2 to 3 months old) from the Departmental Colon y were immunized by an intradermal injection of testosterone-3-(O-carboxymethyl)-oxime bovine serum albumin conjugate (200 ug/rat) incorporated in complete Freund's adjuvant. A month later the injection was repeated, and booster injections (100 ug/rat) were given three weeks later. All animals were bled from the tail ten days after the booster injection, and the antisera were tested then for titer and specificity.
(§1) Characterization of antibodies: A dextran-coated charcoal radioimmunoassay method was used to detect specific antibodies to testosterone. Antibody titer denotes the dilution at which 50% of the labelled ligand, added at concentrations of 50 pg./ml., is bound as determined by radioimmunoassay. Cross reactivity (%) was calculated as proposed by Thorneycroft et al ("Immunologic Methods", Steroid Determination, Peron and Caldwell, eds., Appleton-Century-Crofts, New York 1970, pp. 63-86). as 100x/y where x is the mass of testosterone and y is the mass of heterologous compound required to produce 50% inhibition of the binding of the tritiated ligand. Affinity of the antibodies was calculated according to Abraham et al in Handbook of Radioimmunoassay, Marcel Dekker Inc., New York, 1977, pp. 591-656.

[2] = test system: monoclonal antibody to testosterone, clone H6 (rat spleen x mouse myeloma NSO/1 hybridoma; heavy chain class Y2a); experiment: Dextran-coated charcoal radioimmunoassay (RIA): affinity and specificity of antibody in ascitic fluid
Procedure: as §1
(§2) After two weeks of growth, antibody-secreting hybridomas were detected by a RIA procedure in the tissue culture media of 30 out of the 147 cultures. During subsequent cell culture, 3 hybridoma lines that yielded high antibody titers were cloned by limiting dilutions and sub-cloned on semi-solid agar. When injected i.p. into pristane-trea ted irradiated F₁ mice or nude mice, the hybridomas grew as tumors and secreted high amounts of anti-testosterone antibodies into the ascitic fluid of these mice, with titers ranging from 1:10,000 to 1:60,000 (Table 1).
(§3) Characterization of monoclonal antibodies: The ascitic fluid of mice derived from three hybridomas. H₆, F₂ and D₁₁ was further characterized for affinity and specificity by a dextran-coated RIA procedure.

[3] = test system: monoclonal antibody to testosterone, clone D11 (rat spleen x mouse myeloma NSO/1 hybridoma; heavy chain class Y2a); experiment: as above
Procedure: as §1, §2, §3

[4] = test system: monoclonal antibody to testosterone, clone F2 (rat spleen x mouse myeloma NSO/1 hybridoma; heavy chain class IgM); experiment: as above
Procedure: as §1, §2, §3

[5] = calculated according to the method of Abraham et al

Row | SMILES | Cross-reaction (%) [1] | Cross-reaction (%) [2] | Cross-reaction (%) [3] | Cross-reaction (%) [4] | Ka [1, 5] | Ka [2, 5] | Ka [3, 5] | Ka [4, 5]
1 | C[C@]12CCC(=O)C[C@H]1CC[C@@H]1[C@@H]2CC[C@]2(C)[C@@H](O)CC[C@@H]12 [5-beta-Dihydrotestosterone] | 2% | 0.5% | 8.5% | 15% | – | – | – | –
2 | C[C@]12CCC(=O)C[C@@H]1CC[C@@H]1[C@@H]2CC[C@]2(C)[C@@H](O)CC[C@@H]12 [5-alpha-Dihydrotestosterone] | 10% | 100% | 100% | 2% | – | – | – | –
3 | C[C@]12CC[C@H]3[C@@H](CCC4=CC(=O)CC[C@@]43C)[C@@H]1CC[C@@H]2O [Testosterone] | 100% | 100% | 100% | 100% | 3.7e+09 L/mol | 2.1e+10 L/mol | 1.85e+10 L/mol | 1e+10 L/mol
